Data on 13 compounds can be found in US11149037B2, “Pyrazole MAGL inhibitors” (H. Lundbeck A/S, priority 2017, dated 2021).

Experiment [1] addresses MAGL (Homo sapiens (Human), UniProt Q99685). Briefly: In vitro competitive activity-based protein profiling, human proteomes (prefrontal cortex or PC3 cell membrane fractions). The following applies: human proteome; for inhibition at 1 µM: read-out: MAGL % inh. 1 μM (human). The class given is biochemical. The procedure, abridged:
(§1)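 Activity of MAGL and FAAH was quantified from fluorescent gel band intensities. Beforehand, inhibitors at several concentrations competed against subsequent probe labelling (FP-Rh, JW912 or HT-01) in species-matched proteomes, each step 30 min at 37° C.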

For experiment [2], the target named is FAAH (Homo sapiens (Human), UniProt O00519). Described as above. Type of experiment: biochemical. The following applies: human proteome; for inhibition at 1 µM: read-out: FAAH % inh. 1 μM (human). Put shortly: as §1
Experiment [3] has as its target T1, FAAH (Mus musculus (Mouse), UniProt O08914). As to the kind of experiment: In vitro competitive activity-based protein profiling, mouse proteomes (brain membrane fraction or cell lysates). The conditions noted are these: mouse proteome; for inhibition at 1 µM: read-out: FAAH % inh. 1 μM (mouse). Type of experiment: biochemical. The procedure, abridged:
as §1

The target of experiment [4] is T2, MAGL (Mus musculus (Mouse), UniProt O35678). The experiment is described as above. The class given is biochemical. The conditions noted are these: mouse proteome; for inhibition at 1 µM: read-out: MAGL % inh. 1 μM (mouse). Put shortly:
as §1

The target in experiment [5] is T1, FAAH. Briefly: Mouse brain proteomes from inhibitor treated mice (oral gavage, sacrificed 4 h after administration). The class given is in vivo. The conditions noted are these: 5 mg/kg oral gavage. The protocol:
(§2) Preparation of Mouse Brain Proteomes from Inhibitor Treated Mice.
(§3) Inhibitors were administered to wild-type C57B1/6J by oral gavage in a vehicle of polyethylene glycol. Each animal was sacrificed 4 h following administration and brain proteomes were prepared and analyzed according to previously established methods (See Niphakis, M. J., et al. (2011) ACS Chem. Neurosci. and Long, J. Z., et al. Nat. Chem. Biol. 5:37-44).

The target of experiment [6] is T2, MAGL. Described as above. Type of experiment: in vivo. The following applies: 5 mg/kg oral gavage. The protocol: as §2, §3

Chain of FAAH (Homo sapiens (Human), UniProt O00519) (O00519 whole entry): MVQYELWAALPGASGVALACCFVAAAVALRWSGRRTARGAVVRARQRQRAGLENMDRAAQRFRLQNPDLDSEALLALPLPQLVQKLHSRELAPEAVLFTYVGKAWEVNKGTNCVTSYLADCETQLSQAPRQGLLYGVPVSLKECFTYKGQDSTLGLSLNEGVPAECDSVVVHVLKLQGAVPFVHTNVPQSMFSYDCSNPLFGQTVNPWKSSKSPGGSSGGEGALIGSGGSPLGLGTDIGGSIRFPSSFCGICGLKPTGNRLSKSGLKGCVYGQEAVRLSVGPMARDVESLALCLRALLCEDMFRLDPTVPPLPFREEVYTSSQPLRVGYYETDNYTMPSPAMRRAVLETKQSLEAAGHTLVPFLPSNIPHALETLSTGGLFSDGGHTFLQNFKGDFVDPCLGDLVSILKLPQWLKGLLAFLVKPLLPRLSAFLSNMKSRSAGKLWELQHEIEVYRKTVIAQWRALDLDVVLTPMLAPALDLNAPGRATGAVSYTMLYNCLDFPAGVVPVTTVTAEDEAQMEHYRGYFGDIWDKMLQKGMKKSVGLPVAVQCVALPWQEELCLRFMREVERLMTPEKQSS
Chain of MAGL (Homo sapiens (Human), UniProt Q99685) (Q99685 whole entry): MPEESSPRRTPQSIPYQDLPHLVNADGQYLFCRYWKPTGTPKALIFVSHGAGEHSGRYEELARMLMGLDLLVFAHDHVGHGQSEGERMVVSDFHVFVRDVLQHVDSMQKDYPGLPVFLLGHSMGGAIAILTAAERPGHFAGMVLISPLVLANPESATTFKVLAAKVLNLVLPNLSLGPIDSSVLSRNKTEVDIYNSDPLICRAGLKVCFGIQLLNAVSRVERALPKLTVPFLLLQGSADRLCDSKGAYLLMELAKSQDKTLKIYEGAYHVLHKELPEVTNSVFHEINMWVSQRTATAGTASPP
T1 sequence (O08914 whole entry): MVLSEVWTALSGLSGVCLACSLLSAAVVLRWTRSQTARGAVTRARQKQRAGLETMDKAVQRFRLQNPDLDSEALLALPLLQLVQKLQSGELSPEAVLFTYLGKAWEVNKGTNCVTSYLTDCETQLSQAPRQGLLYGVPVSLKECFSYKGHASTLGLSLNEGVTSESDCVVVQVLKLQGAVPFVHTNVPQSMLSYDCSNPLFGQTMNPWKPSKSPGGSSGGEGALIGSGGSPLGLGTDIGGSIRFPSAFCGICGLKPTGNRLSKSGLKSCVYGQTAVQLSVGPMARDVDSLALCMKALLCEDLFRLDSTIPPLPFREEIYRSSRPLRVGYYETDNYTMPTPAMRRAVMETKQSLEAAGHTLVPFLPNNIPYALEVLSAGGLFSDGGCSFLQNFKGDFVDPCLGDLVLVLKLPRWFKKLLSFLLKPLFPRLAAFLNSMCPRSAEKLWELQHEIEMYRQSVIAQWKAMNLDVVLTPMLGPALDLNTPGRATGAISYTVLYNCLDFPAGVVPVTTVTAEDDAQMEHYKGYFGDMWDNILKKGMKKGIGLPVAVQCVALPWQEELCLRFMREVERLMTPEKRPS
T2 sequence (O35678 whole entry): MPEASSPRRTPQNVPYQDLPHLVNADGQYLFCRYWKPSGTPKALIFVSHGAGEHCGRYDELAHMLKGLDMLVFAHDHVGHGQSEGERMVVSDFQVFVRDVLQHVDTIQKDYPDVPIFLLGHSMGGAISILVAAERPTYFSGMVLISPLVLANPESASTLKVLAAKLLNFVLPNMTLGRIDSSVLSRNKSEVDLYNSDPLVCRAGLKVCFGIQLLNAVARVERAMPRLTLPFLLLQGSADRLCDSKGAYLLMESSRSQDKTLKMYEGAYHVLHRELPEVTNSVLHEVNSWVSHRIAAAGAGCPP

As to `CC(C)OC1CCN(c2cc(CN3CCN(C(=O)n4ccc(NS(C)(=O)=O)n4)C[C@@H]3C)ccc2Cl)CC1` [Example 32, (S)—N-(1-(4-(4-chloro-3-(4-isopropoxypiperidin-1-yl)benzyl)-3-methylpiperazine-1-carbonyl)-1H-pyrazol-3-yl)methanesulfonamide], the inhibition at 1 µM is greater than 75% in experiment [1] (1 μM), 0 to 25% in experiment [2] (1 μM), 0 to 25% in experiment [3] and greater than 75% in experiment [4]. The “FAAH % inh. 5 mg/kg (mouse)” value in experiment [5] was “D (% inhibition is greater than or equal to 0% and less than 25%)”. Besides, in experiment [6], the “MAGL % inh. 5 mg/kg (mouse)” value is listed as “A (% inhibition is greater than or equal to 75%)”.

For `CC(=O)Nc1ccn(C(=O)N2CCC3(CCCN3Cc3cc4cc(Cl)ccc4s3)CC2)n1` [Example 39, N-(1-(1-((5-Chlorobenzo[b]thiophen-2-yl)methyl)-1,8-diazaspiro[4.5]decane-8-carbonyl)-1H-pyrazol-3-yl)acetamide], the IC50 in experiment [1] is less than 0.1 µM; in experiment [2] it was 1 to 10 µM. The inhibition at 1 µM in experiment [3] is 50 to 75%; in experiment [4] it was greater than 75%. Further, the “FAAH % inh. 5 mg/kg (mouse)” value in experiment [5] was “D (% inhibition is greater than or equal to 0% and less than 25%)”. Further, the “MAGL % inh. 5 mg/kg (mouse)” value in experiment [6] is “A (% inhibition is greater than or equal to 75%)”.

Turning to `CS(=O)(=O)Nc1ccn(C(=O)N2CCC3(CCN(Cc4ccc(C(F)(F)F)cc4N4CCCC4)C3)CC2)n1` [Example 58, N-(1-(2-(2-(Pyrrolidin-1-yl)-4-(trifluoromethyl)benzyl)-2,8-diazaspiro[4.5]decane-8-carbonyl)-1H-pyrazol-3-yl)methanesulfonamide], the inhibition at 1 µM in experiment [1] (1 μM) was greater than 75%; in experiment [2] (1 μM) it was 0 to 25%; in experiment [3] it was 0 to 25%; in experiment [4] it was greater than 75%. For the same compound, the “FAAH % inh. 5 mg/kg (mouse)” value in experiment [5] is “D (% inhibition is greater than or equal to 0% and less than 25%)”. Besides, in experiment [6], the “MAGL % inh. 5 mg/kg (mouse)” value is “A (% inhibition is greater than or equal to 75%)”.

For `CS(=O)(=O)Nc1ccn(C(=O)N2CCC3(CCN(Cc4ccc(Cl)cc4N4CCCC4)C3)CC2)n1` [Example 63, N-(1-(2-(4-Chloro-2-(pyrrolidin-1-yl)benzyl)-2,8-diazaspiro[4.5]decane-8-carbonyl)-1H-pyrazol-3-yl)methanesulfonamide], the inhibition at 1 µM in experiment [1] (1 μM) is greater than 75%; in experiment [2] (1 μM), 0 to 25%; in experiment [3] it was 0 to 25%; in experiment [4], greater than 75%. Moreover, the results for the half-maximal inhibitory concentration (IC50) in experiment [1] and in experiment [2] were less than 0.1 µM and 1 to 10 µM, respectively. In experiment [5], the “FAAH % inh. 5 mg/kg (mouse)” value was “D (% inhibition is greater than or equal to 0% and less than 25%)”. Also, the “MAGL % inh. 5 mg/kg (mouse)” value in experiment [6] is “C (% inhibition is greater than or equal to 25% and less than 50%)”.

As to `CS(=O)(=O)Nc1ccn(C(=O)N2CCN(Cc3ccc(C(F)(F)F)nc3N3CCCC3)CC2)n1` [Example 71, N-(1-(4-((2-(Pyrrolidin-1-yl)-6-(trifluoromethyl)pyridin-3-yl)methyl)piperazine-1-carbonyl)-1H-pyrazol-3-yl)methanesulfonamide], the inhibition at 1 µM in experiment [1] (1 μM) is greater than 75%; in experiment [2] (1 μM) it was 0 to 25%; in experiment [3], 0 to 25%; in experiment [4], greater than 75%. The “FAAH % inh. 5 mg/kg (mouse)” value in experiment [5] is “D (% inhibition is greater than or equal to 0% and less than 25%)”. The “MAGL % inh. 5 mg/kg (mouse)” value in experiment [6] is on record as “A (% inhibition is greater than or equal to 75%)”.

Turning to `CN(Cc1ccc(C(F)(F)F)cc1N1CCCC1)C1(C)CCN(C(=O)n2ccc(NS(C)(=O)=O)n2)CC1` [Example 75, N-(1-(4-Methyl-4-(methyl(2-(pyrrolidin-1-yl)-4-(trifluoromethyl)benzyl)amino)piperidine-1-carbonyl)-1H-pyrazol-3-yl)methanesulfonamide], the inhibition at 1 µM in experiment [1] (1 μM) is greater than 75%; in experiment [2] (1 μM) it was 0 to 25%; in experiment [3], 0 to 25%; in experiment [4], greater than 75%. The “FAAH % inh. 5 mg/kg (mouse)” value in experiment [5] was “D (% inhibition is greater than or equal to 0% and less than 25%)”. The “MAGL % inh. 5 mg/kg (mouse)” value in experiment [6] is on record as “A (% inhibition is greater than or equal to 75%)”.

Regarding `CC(=O)Nc1ccn(C(=O)N2CCN(Cc3ccc(C(F)(F)F)cc3NCCCC(=O)O)CC2)n1` [Example 76, 4-((2-((4-(3-Acetamido-1H-pyrazole-1-carbonyl)piperazin-1-yl)methyl)-5-(trifluoromethyl)phenyl)amino)butanoic acid], the inhibition at 1 µM was greater than 75% in experiment [1] (1 μM), 0 to 25% in experiment [2] (1 μM), 0 to 25% in experiment [3] and greater than 75% in experiment [4]. Further, in experiment [5], the “FAAH % inh. 5 mg/kg (mouse)” value is “D (% inhibition is greater than or equal to 0% and less than 25%)”. Also, the “MAGL % inh. 5 mg/kg (mouse)” value in experiment [6] is “D (% inhibition is greater than or equal to 0% and less than 25%)”.

Regarding `CC(=O)Nc1ccn(C(=O)N2CCC3(CCCN3Cc3ccc(C(F)(F)F)cc3NCCCC(=O)O)CC2)n1` [Example 79, 4-((2-((8-(3-Acetamido-1H-pyrazole-1-carbonyl)-1,8-diazaspiro[4.5]decan-1-yl)methyl)-5-(trifluoromethyl)phenyl)amino)butanoic acid], the inhibition at 1 µM in experiment [1] (1 μM) is greater than 75%; in experiment [2] (1 μM) it was 0 to 25%; in experiment [3], 0 to 25%; in experiment [4], greater than 75%. In addition, the “FAAH % inh. 5 mg/kg (mouse)” value in experiment [5] is “D (% inhibition is greater than or equal to 0% and less than 25%)”. Besides, in experiment [6], the “MAGL % inh. 5 mg/kg (mouse)” value was “D (% inhibition is greater than or equal to 0% and less than 25%)”.

Take `CS(=O)(=O)Nc1ccn(C(=O)N2CCC(Oc3ccc(C(F)(F)F)cc3N3CCCC3)CC2)n1` [Example 80, N-(1-(4-(2-(Pyrrolidin-1-yl)-4-(trifluoromethyl)phenoxy)piperidine-1-carbonyl)-1H-pyrazol-3-yl)methanesulfonamide]: the inhibition at 1 µM was greater than 75% in experiment [1] (1 μM), 0 to 25% in experiment [2] (1 μM), 0 to 25% in experiment [3] and greater than 75% in experiment [4]. Moreover, the “FAAH % inh. 5 mg/kg (mouse)” value in experiment [5] is “D (% inhibition is greater than or equal to 0% and less than 25%)”. Moreover, the “MAGL % inh. 5 mg/kg (mouse)” value in experiment [6] is listed as “A (% inhibition is greater than or equal to 75%)”.

`CC(=O)Nc1ccn(C(=O)N2CCC3(CCCN3C(=O)c3ccc(C#N)c(C4CC4)c3)CC2)n1` [Example 87, N-(1-(1-(4-Cyano-3-cyclopropylbenzoyl)-1,8-diazaspiro[4.5]decane-8-carbonyl)-1H-pyrazol-3-yl)acetamide]: the inhibition at 1 µM is greater than 75% in experiment [1] (1 μM), 0 to 25% in experiment [2] (1 μM), 0 to 25% in experiment [3] and greater than 75% in experiment [4]. For the same compound, the “FAAH % inh. 5 mg/kg (mouse)” value in experiment [5] is “D (% inhibition is greater than or equal to 0% and less than 25%)”. The “MAGL % inh. 5 mg/kg (mouse)” value in experiment [6] is “D (% inhibition is greater than or equal to 0% and less than 25%)”.

Take `CS(=O)(=O)Nc1ccn(C(=O)N2CCN(Cc3ccc(Cl)nc3N3CCCC3)CC2)n1` [Example 90, N-(1-(4-((6-Chloro-2-(pyrrolidin-1-yl)pyridin-3-yl)methyl)piperazine-1-carbonyl)-1H-pyrazol-3-yl)methanesulfonamide]: the inhibition at 1 µM in experiment [1] (1 μM) was greater than 75%; in experiment [2] (1 μM), 0 to 25%; in experiment [3], 0 to 25%; in experiment [4], greater than 75%. In addition, in experiment [5], the “FAAH % inh. 5 mg/kg (mouse)” value is “D (% inhibition is greater than or equal to 0% and less than 25%)”. Further, the “MAGL % inh. 5 mg/kg (mouse)” value in experiment [6] was “C (% inhibition is greater than or equal to 25% and less than 50%)”.

For `CS(=O)(=O)Nc1ccn(C(=O)N2C[C@H]3C[C@@H](N(CC(=O)O)Cc4cc(Cl)ccc4C(F)(F)F)C[C@H]3C2)n1` [Example 93, N-(5-Chloro-2-(trifluoromethyl)benzyl)-N-((3aR,5r,6aS)-2-(3-(methylsulfonamido)-1H-pyrazole-1-carbonyl)octahydrocyclopenta[c]pyrrol-5-yl)glycine], the “MAGL % inh. 1 μM (human)” value in experiment [1] (1 μM) is reported as “A (% inhibition is greater than or equal to 75%)”. Further, the “FAAH % inh. 1 μM (human)” value in experiment [2] (1 μM) was “D (% inhibition is greater than or equal to 0% and less than 25%)”. Also, the “FAAH % inh. 1 μM (mouse)” value in experiment [3] was “D (% inhibition is greater than or equal to 0% and less than 25%)”. Moreover, the “MAGL % inh. 1 μM (mouse)” value in experiment [4] was “A (% inhibition is greater than or equal to 75%)”. Moreover, in experiment [5], the “FAAH % inh. 5 mg/kg (mouse)” value is “D (% inhibition is greater than or equal to 0% and less than 25%)”. For the same compound, in experiment [6], the “MAGL % inh. 5 mg/kg (mouse)” value was “D (% inhibition is greater than or equal to 0% and less than 25%)”.

Consider `CN(Cc1ccc(C(F)(F)F)cc1N1CCOCC1)C1(C)CCN(C(=O)n2ccc(NS(C)(=O)=O)n2)CC1` [Example 94, N-(1-(4-Methyl-4-(methyl(2-morpholino-4-(trifluoromethyl)benzyl)amino)piperidine-1-carbonyl)-1H-pyrazol-3-yl)methanesulfonamide], for which the inhibition at 1 µM is greater than 75% in experiment [1] (1 μM), 0 to 25% in experiment [2] (1 μM), 0 to 25% in experiment [3] and greater than 75% in experiment [4]. The “FAAH % inh. 5 mg/kg (mouse)” value in experiment [5] is “D (% inhibition is greater than or equal to 0% and less than 25%)”. Besides, the “MAGL % inh. 5 mg/kg (mouse)” value in experiment [6] is given as “A (% inhibition is greater than or equal to 75%)”.
